This is an account of results in patent publication US10570117B2, “Phenylimidazole compound” (Otsuka Pharmaceutical Factory, Inc., priority 2015, dated 2020).

A word on the melting point: it is the temperature of the solid-liquid transition.

The subject of data set [1] is lipoprotein lipase (LPL) gene. As to the kind of experiment: LPL mRNA elevating action (RT-PCR quantification of LPL mRNA in C2Cl2 cells). It is filed as cell-based, mouse. Conditions: Mus musculus, 24 h, compound 10 μM, ratio relative to the amount of LPL mRNA in cells with DMSO only, read-out: Rate of increase in LPL mRNA. An outline of the steps:
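Read-out is LPL mRNA relative to vehicle (DMSO = 1), measured by reverse transcription and 20-cycle real-time PCR. Cells were the mouse striated-muscle line C2Cl2, treated 24 h with 10 μM compound in DMEM containing 10% FBS.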

The nature of data set [2]: Solubility in gastric juice or intestinal juice model fluid (precipitation method using DMSO). It is filed as physicochemical. The note with it: room temperature. In outline: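 Dissolved amount (μg/mL) quantified by UV of filtrate versus pre-made calibration curves. Precipitation approach: DMSO solutions spiked into pH 1.2 (JP 1st fluid) or pH 6.8 (JP 2nd fluid) medium, shaken at room temperature for 24 h before insolubles were filtered off.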

The mark [3] stands for this setting: pH 1.2, simulated gastric fluid, kinetic from dmso stock, 1st fluid for Disintegration Test of Japanese Pharmacopoeia (pH: 1.2), read-out: Solubility (μg/mL) 1st fluid.
The mark [4] stands for this setting: pH 6.8, kinetic from dmso stock, 2nd fluid for Disintegration Test of Japanese Pharmacopoeia (pH: 6.8), read-out: Solubility (μg/mL) 2nd fluid.

Values after ≈ are worked out from the molar mass of the structure shown. Where two headings read alike, the source gives them in different places.

Take `COc1cc(OCc2ccc(C(F)(F)F)cn2)ccc1-c1c[nH]c(-c2cccc(N3CCCC3)n2)n1` [Example 40]: the melting point was 100 to 108 °C. Also, the fold induction at 10 µM in data set [1] was found to be 0.93. Besides, the solubility at 24 h in data set [2] (setting [3]) was 6.9 µg/mL (≈ 13.9 µM). In data set [2] (setting [4]), the solubility at 24 h came to 2.8 µg/mL (≈ 5.65 µM).
The like results for `COc1cc(OCc2c(F)cc(C(F)(F)F)c[n+]2[O-])ccc1-c1[nH]c(-c2ccc(F)nc2)nc1Br` [Example 318] were, in that order, 105 to 120 °C, 3.15, 100 µg/mL (≈ 180 µM) and 8.7 µg/mL (≈ 15.6 µM).
For `COc1cc(OCc2ccc(C(F)(F)F)nc2)ccc1-c1c(C)nc(-c2ccc(F)nc2)n1C` [Example 161], in that order: 123 to 126 °C, 3.06, greater than 94 µg/mL and 3.9 µg/mL (≈ 8.25 µM).
For `COc1cc(OCc2ncc(C(F)(F)F)cc2F)ccc1-c1[nH]c(C(C)(C)C)nc1Cl` [Example 383], in that order: 170 to 172 °C, 2.16, 85.1 µg/mL (≈ 186 µM) and less than 0.3 µg/mL.
For `COc1cc(OCc2ccc(C(F)(F)F)cn2)ccc1-c1c(C)nc(-c2ccc(Cl)nc2)n1C` [Example 165], the melting point was 152 to 154 °C. For the same molecule, the fold induction at 10 µM in data set [1] was found to be 3.34. Besides, the solubility at 24 h in data set [2] (setting [3]) was 96 µg/mL (≈ 196 µM). In data set [2] (setting [4]), the solubility at 24 h turned out to be 2.1 µg/mL (≈ 4.3 µM).
For `COc1c(OCc2ccc(C(F)(F)F)cn2)ccc(-c2c[nH]c(C3CCC(F)(F)CC3)n2)c1OC` [Example 57], in that order: 155 to 157 °C, 3.72, greater than 99 µg/mL and 0.8 µg/mL (≈ 1.61 µM).
The like results for `COc1cc(OCc2ccc(C(F)(F)F)cn2)ccc1-c1nc(-c2ccc(F)cn2)[nH]c1C` [Example 25] were, in that order, 180 to 182 °C, 2.68, 83.1 µg/mL (≈ 181 µM) and 1 µg/mL (≈ 2.18 µM).
For `Fc1ccc(-c2nc(Cl)c(-c3ccc(OCc4ncc(C(F)(F)F)cc4F)cc3F)[nH]2)cn1` [Example 370], in that order: 144 to 146 °C, 3.31, 1.6 µg/mL (≈ 3.3 µM) and 1.8 µg/mL (≈ 3.71 µM).
Regarding `COc1cc(OCc2ccc(C(F)(F)F)cn2)ccc1-c1[nH]c(C2CC(F)(F)C2)nc1Cl` [Example 188], the melting point lay in the range of 191 to 193 °C. The fold induction at 10 µM in data set [1] was 2.95. For the same molecule, in data set [2] (setting [3]), the solubility at 24 h was 86.4 µg/mL (≈ 182 µM). In addition, the solubility at 24 h in data set [2] (setting [4]) was found to be 1.9 µg/mL (≈ 4.01 µM).
`COCCOc1cc(OCc2ccc(C(F)(F)F)cn2)ccc1-c1c[nH]c(-c2ccc(Cl)nc2)n1` [Example 21] showed a melting point of 162 to 167 °C. Besides, in data set [1], the fold induction at 10 µM is 1.99. Moreover, in data set [2] (setting [3]), the solubility at 24 h was 3 µg/mL (≈ 5.94 µM). Further, the solubility at 24 h in data set [2] (setting [4]) is less than 1.8 µg/mL.
The like results for `COc1cc(OCn2cccn2)ccc1-c1nc(-c2ccc(Cl)nc2)[nH]c1Cl` [Example 213] were, in that order, 166 to 169 °C, 2.04, 79.7 µg/mL (≈ 191 µM) and 2.1 µg/mL (≈ 5.04 µM).
For `COc1ccc(-c2nc(-c3ccc(OCc4ccc(C(F)(F)F)cn4)cc3OC)c[nH]2)cn1` [Example 79], in that order: 187 to 189 °C, 1.42, 10.6 µg/mL (≈ 23.2 µM) and 1.2 µg/mL (≈ 2.63 µM).
`COc1cc(OCc2ncc(F)cc2F)ccc1-c1[nH]c(-c2ccc(Cl)nc2)nc1Cl` [Example 247] yielded a melting point of 187 to 190 °C. In data set [1], the fold induction at 10 µM is 2.25. Further, the solubility at 24 h in data set [2] (setting [3]) is 8.4 µg/mL (≈ 18.1 µM). Moreover, the solubility at 24 h in data set [2] (setting [4]) came out at 5.3 µg/mL (≈ 11.4 µM).
The like results for `COc1cc(O)ccc1-c1c[nH]c(-c2ccc(F)nc2)n1` [Example 109, 4-[2-(6-fluoropyridin-3-yl)-1H-imidazol-5-yl]-3-methoxyphenol] were, in that order, 249 to 251 °C (dec.), 1.76, greater than 57 µg/mL and 40 µg/mL (≈ 140 µM).
The like results for `COc1cc(OCc2ccc(C(F)(F)F)nc2)ccc1-c1nc(-c2ccc(Cl)cn2)[nH]c1C` [Example 27] were, in that order, 157 to 159 °C, 2.45, 5.9 µg/mL (≈ 12.4 µM) and 0.5 µg/mL (≈ 1.05 µM).
The like results for `COc1cc(OCc2ccc(C(F)(F)F)nc2)ccc1-c1c(C)nc(-c2ccc(Cl)nc2)n1CC1CC1` [Example 155] were, in that order, 164 to 166 °C, 3.06, greater than 106 µg/mL and 3 µg/mL (≈ 5.67 µM).
On to `COc1cc(-c2[nH]c(C3C4CC5CC(C4)CC3C5)nc2Cl)ccc1OCc1ccc(C(F)(F)F)cn1` (stereo not drawn) [Example 201], for which the melting point was 238 to 240 °C (dec.). Also, the fold induction at 10 µM in data set [1] is 2.45. The solubility at 24 h in data set [2] (setting [3]) is 90 µg/mL (≈ 174 µM). Moreover, in data set [2] (setting [4]), the solubility at 24 h was found to be 2.6 µg/mL (≈ 5.02 µM).
For `Oc1ccc(-c2cnc(-c3ccc(F)nc3)[nH]2)c(Cl)c1` [Example 359], in that order: 223 to 225 °C, 1.75, 57.3 µg/mL (≈ 198 µM) and 52.8 µg/mL (≈ 182 µM).
The like results for `COc1cc(OCc2ccc(C(F)(F)F)cn2)ccc1-c1c(Cl)nc(-c2ccc(Cl)nc2)n1CC1CC1` [Example 295] were, in that order, 130 to 132 °C, 4.06, 18.3 µg/mL (≈ 33.3 µM) and 1.1 µg/mL (≈ 2 µM).
For `COc1cc(OCc2ncc(C(F)(F)F)cc2F)ccc1-c1[nH]c(C2CCCC2)nc1Cl` [Example 367], in that order: 139 to 142 °C, 2.54, 82.1 µg/mL (≈ 175 µM) and less than 0.3 µg/mL.
In the case of `Fc1ccc(-c2nc(Cl)c(-c3ccc(OCc4ncc(C(F)(F)F)cc4F)cc3Cl)[nH]2)cn1` [Example 361], the melting point was 158 to 160 °C. In addition, the fold induction at 10 µM in data set [1] was 5.51. Besides, in data set [2] (setting [3]), the solubility at 24 h was 3.4 µg/mL (≈ 6.78 µM). The solubility at 24 h in data set [2] (setting [4]) is less than 0.4 µg/mL.
For `COc1cc(OCc2cccnc2C(F)(F)F)ccc1-c1cnc(-c2ccc(F)nc2)[nH]1` [Example 112], in that order: 187 to 190 °C, 2.39, 12 µg/mL (≈ 27 µM) and 2.1 µg/mL (≈ 4.73 µM).
The like results for `COc1cc(OCc2ncccc2C(F)(F)F)ccc1-c1nc(-c2ccc(F)nc2)[nH]c1Cl` [Example 214] were, in that order, 143 to 146 °C, 3.66, greater than 96 µg/mL and 7.1 µg/mL (≈ 14.8 µM).
For `COc1cc(-c2[nH]c(C3CCC(F)(F)CC3)nc2Br)ccc1OCc1ccc(C(F)(F)F)cn1` [Example 198], in that order: 158 to 165 °C, 6.36, greater than 109 µg/mL and 17.4 µg/mL (≈ 31.8 µM).
